Test system: rabbits
Test: Effect on pupil diameter in rabbit animal model (change from baseline)
Type: in vivo
Conditions: for reduction from baseline pupil diameter: dose of 1.25% w/w
Protocol: Dose solutions with concentration range of 0.25% to 4% pilocarpine were prepared and dosed in rabbits. The effect on pupil diameter was measured and recorded as the change from baseline.
Dose solutions with concentration range of 0.03% to 3% carbachol were prepared and dosed in rabbits. The effect on pupil diameter was measured and recorded as the change from baseline. […] The expected efficacious range of carbachol resulting in the aforementioned pupil size reduction would correspond to approximately 0.1 to 1% w/w carbachol (FIG. 2).

Question: For `C[N+](C)(C)CCOC(N)=O.[Cl-]` [carbachol, carbamoylcholine chloride], which “dose that most closely matches the optimum dose response measured for pilocarpine” value (20-30% pupil diameter reduction over 0.5 to 2 hours, about 10% up to 3 hours, tested 0.03% to 3%) is on record?
Answer: The value was “approximately 0.6 % w/w”.

Question: With `CC[C@@H]1C(=O)OC[C@@H]1Cc1cncn1C` [pilocarpine] as the compound, how does the “reduction from baseline pupil diameter” value (over 0.5 to 2 hours) read?
Answer: Its value is 20-30%.

Question: What about the “reduction from baseline pupil diameter” value (up to 3 hours) of the same compound?
Answer: Its value is “approximately 10%”.
